Test [1] relates to rat unilateral ureteral obstruction (UUO) model. Nature of the test: Anti-fibrotic activity, rat unilateral ureteral obstruction (UUO) model (Test Example 5). The test is classed as in vivo, SD rats. To be noted: UUO treatment, left kidney, corrected by total protein of kidney extract, average of 6 rats ± standard deviation. As for the experimental part:
The anti-fibrotic activity of the compounds described in the present specification was evaluated using a rat unilateral ureteral obstruction (UUO) model which is a renal fibrosis model. Compound 50 and compound 159 were used as the test compound. Six week-old male SD rats (available from Charles River Japan, Inc.) were purchased and were pre-raised before use in experiments. Regarding diets and drinking water, pellets CE-2 (available from CLEA JAPAN INC.) and sterile tap water were freely fed. The rats underwent laparotomy under pentobarbital anesthesia, and the left renal urinary duct was ligated. Thereafter, the […] underwent suturing operation and were divided into a vehicle administration group (n = 6) and a test compound administration group (n = 6) using the weight as an index. The test compound was mixed in amounts of 0.03% and 0.1% in powder diet CE-2 (available from CLEA JAPAN INC.), and the mixtures were fed as a diet to each rat group from the first day of the ureteral obstruction.
After administration of the mixed feed for 7 days, the left kidney was removed, and the hydroxyproline content as an index of organ fibrosis was measured by the following method. Specifically, renal pieces were first placed in 6 N HCl, were homogenized, and were then heated on a heat block at 130°C for 3 hr to hydrolyze protein. Thereafter, the suspension of renal pieces was neutralized by the addition of an appropriate amount of 4 N NaOH. The neutralized suspension was centrifuged (1000 rpm, 5 min, room temperature) to obtain the supernatant as a kidney extract. A chloramine T liquid, a perchloric acid solution (a solution prepared by adding distilled water to 31.5 ml of 60% perchloric acid to adjust the total volume to 100 ml), and a p-dimethylaminobenzaldehyde solution (a solution prepared by adding […] to 20 g of p-dimethylaminobenzaldehyde to adjust the total volume to 100 ml) were added to the kidney extract, and a reaction was allowed to proceed at 60°C for 20 min. The absorbance at 557 nm was then measured. The content of hydroxyproline was determined from the measured data based on a calibration curve for hydroxyproline prepared using control. Further, the content of hydroxyproline thus determined was corrected according to the total protein content of the kidney extract.
The values in the tables are average of data on 6 rats for each group ± standard deviation.

Another test relates to TGFβ signal. As to the kind of experiment: TGFβ signal inhibitory activity, (SBE)4-Luc reporter in A549 cells (Test Examples 1A and 1B). The test is classed as cell-based, human. Particulars: Homo sapiens, A549, read-out: TGFβ inhibition rate, %. Put shortly: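 Compounds at 3 µM and 10 µM (some 1 µM) were added with 2 ng/ml TGFβ-1 to A549 cells stably expressing an SBE-driven luciferase, then cultured 4 hr. Chemiluminescent luciferase signal gave % inhibition versus TGFβ-alone and no-TGFβ controls.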

The subject of test [2] is mouse unilateral ureteral obstruction (UUO) model. Nature of the test: Anti-fibrotic activity, mouse UUO model, mixed feed for 10 days (Test Example 3). It is filed as in vivo. Particulars: UUO treatment, kidney, average of five mice ± standard deviation. The method, then: The anti-fibrotic activity of the compounds related to the present invention was evaluated using a mouse unilateral ureteral obstruction (UUO) model which is a renal fibrosis model. Compound r384 produced in the working example was used as the test compound. Seven week-old male BALB/c mice (available from Charles River Japan, Inc.) were purchased and were pre-raised before use in experiments. Regarding diets and drinking water, pellets CE-2 (available from CLEA JAPAN INC.) and sterile tap water were freely fed. The mice underwent laparotomy under pentobarbital anesthesia, and the left renal urinary duct was ligated. […] After administration for 4 days, the mouse left kidney was removed, and the hydroxyproline content as an index of organ fibrosis was measured by the following method. […] The absorbance at 557 nm was then measured. The content of hydroxyproline was determined from the measured data based on a calibration curve for hydroxyproline prepared using control. Further, the content of hydroxyproline thus determined was corrected according to the weight of the homogenized kidney. The anti-fibrotic activity of a compound related to the present invention was evaluated using the same model as used in Test Example 2. […]

Test [3] relates to mouse DMN hepatic fibrosis model. As to the kind of experiment: Anti-fibrotic activity, mouse DMN hepatic fibrosis model (Test Example 4). The test is classed as in vivo, BALB/c mice. Particulars: DMN administration, 21 days, average of 6 mice ± standard deviation. The method, then: The anti-fibrotic activity of a compound related to the present invention was evaluated using a mouse DMN hepatic fibrosis model as a liver fibrosis model. Compound r384 prepared in the working example was used as the test compound. Six-week-old male BALB/c mice (available from Charles River Japan, Inc.) were purchased and were pre-raised before use in experiments. The mice were divided into a vehicle administration group (n = 6) and a test compound administration group ([…]) using the weight as an index. Thereafter, dimethylnitrosoamine (DMN) diluted with physiological saline was intraperitoneally administered at 15 mg/kg three times per week for 3 weeks to induce hepatic fibrosis. The administration of the test compound was carried out from the first day of the DMN administration. The test compound was mixed at the dosage of 0.015, 0.03, and 0.06% in powder diet CE-2 (available from CLEA JAPAN INC.), and the mixtures were fed as a diet to each mouse group. After 21 days, the mice underwent laparotomy under ether anesthesia, and blood was collected from the heart, followed by measurement of the level of hyaluronic acid in blood as an index of hepatic fibrosis using a hyaluronic acid plate (Chugai Pharmaceutical Co., Ltd.).
The values in the table are average of data on 6 mice for each group ± standard deviation.

Test [4] concerns mouse unilateral ureteral obstruction (UUO) model. As to the kind of experiment: Anti-fibrotic activity, mouse unilateral ureteral obstruction (UUO) model, oral administration (Test Example 2). The test is classed as in vivo, BALB/c mice. Particulars: UUO treatment, left kidney, average of 7 mice ± standard deviation. The method, then:
The anti-fibrotic activity of the compounds related to the present invention was evaluated using a mouse unilateral ureteral obstruction (UUO) model which is a renal fibrosis model. Compound r384 produced in the working example was used as the test compound. Seven week-old male BALB/c mice (available from Charles River Japan, Inc.) were purchased and were pre-raised before use in experiments. Regarding diets and drinking water, pellets CE-2 (available from CLEA JAPAN INC.) and sterile tap water were freely fed. The mice underwent laparotomy under pentobarbital anesthesia, and the left renal urinary duct was ligated. Thereafter, the mice underwent suturing operation and were divided into a vehicle administration group (n = 7) and a test compound administration group (n = 7) using the weight as an index. The test compound was weighed, and then one drop of 1 N HCl was added to the test compound to prepare a solution. The solution was then suspended in 0.5% carboxymethylcellulose (solvent). The suspension was forcibly orally administered twice a day with an oral sonde from the day of urinary duct ligation (5, 15, or 50 mg/kg). The solvent was administered to the vehicle administration group in the same manner as described just above.
After administration for 4 days, the mouse left kidney was removed, and the hydroxyproline content as an index of organ fibrosis was measured by the following method. Renal pieces were first placed in 6 N HCl, were homogenized, and were then heated on a heat block at 130°C for 3 hr to hydrolyze protein. Thereafter, the suspension of renal pieces was neutralized by the addition of an appropriate amount of 4 N NaOH. The neutralized suspension was centrifuged (1000 rpm, 5 min, room temperature) to obtain the supernatant as a kidney extract. […] The absorbance at 557 nm was then measured. The content of hydroxyproline was determined from the measured data based on a calibration curve for hydroxyproline prepared using control. Further, the content of hydroxyproline thus determined was corrected according to the weight of the homogenized kidney. […]

The mark [5] stands for this setting: test compound 3 µM, TGFβ-1 2 ng/ml, 4 hr, Table 1A.
The mark [6] stands for this setting: test compound 10 µM, TGFβ-1 2 ng/ml, 4 hr, Table 1A.
Where [7] appears, read: 3 µM, compounds of Reference Examples (Test Example 1B).
The mark [8] stands for this setting: 10 µM, compounds of Reference Examples (Test Example 1B).

Read-outs that look alike come from different tables or passages of the source. Marks after values point to notes of the source that are not given here.

Take `CCc1ccc(Oc2ccnc3cc(OC)c(F)cc23)c(-c2ncccn2)n1` [Compound 159, 4-(6-Ethyl-2-pyrimidin-2-yl-pyridin-3-yloxy)-6-fluoro-7-methoxy-quinoline]: the “Hydroxyproline content” value is 22.47 ± 0.82 mg/g in test [1] (0.03% mixed feed for 7 days, Table 5b) and 17.28 ± 0.87 mg/g in test [1] (0.1% mixed feed for 7 days, Table 5b). For the same compound, in the test with TGFβ signal (setting [5]), the inhibition (commonly the drop in the measured response relative to a control, in per cent) at 3 µM came to 99%. In addition, the inhibition at 10 µM in the test with TGFβ signal (setting [6]) came out at 100%.
On to `CCc1ccc(Oc2ccnc3cc(OC)c(OC)cc23)c(-c2ncccn2)n1` [Compound 50, 4-(6-Ethyl-2-pyrimidin-2-yl-pyridin-3-yloxy)-6,7-dimethoxy-quinoline], for which the “Hydroxyproline content” value worked out at 7.33 ± 0.67 mg/g in test [1] (0.03% mixed feed for 7 days, Table 5a) and 4.67 ± 0.22 mg/g in test [1] (0.1% mixed feed for 7 days, Table 5a). The inhibition at 3 µM with TGFβ signal (setting [5]) was 98%. In addition, in the test on TGFβ signal (setting [6]), the inhibition at 10 µM worked out at 100%.
For the compound `COc1cc2c(Oc3cc(C)c(C)cc3C(C)=O)ccnc2cc1OCCCN1CCOCC1.Cl` [Compound r320, 1-{2-[6-Methoxy-7-(3-morpholin-4-yl-propoxy)-quinolin-4-yloxy]-4,5-dimethyl-phenyl}-ethanone hydrochloride], the entries for the “Hydroxyproline content (mg/g protein)” value in test [2] (0.1% mixed feed for 10 days) and in test [2] (0.3% mixed feed for 10 days) were 9.44 ± 0.53 mg/g protein and 9.19 ± 0.38 mg/g protein, respectively. The inhibition at 3 µM in the test on TGFβ signal (setting [7]) worked out at 100%. For the same compound, the inhibition at 10 µM in the test with TGFβ signal (setting [8]) amounted to 100%.
Regarding `COc1cc2c(Oc3cc4ccccc4nc3C)ccnc2cc1OCC(O)CO` (stereo not shown) [Compound r384, 3-[6-Methoxy-4-(2-metharl-quinolin-3-yloxy)-quinolin-7-yloxy]-propane-1,2-diol], the “Blood hyaluronic acid content” value in test [3] (0.015% mixed feed) is 167.8 ± 25.0 ng/mL. Besides, in test [3] (0.06% mixed feed), the “Blood hyaluronic acid content (ng/ml)” value is reported as 97.2 + 11.0** ng/ml. Also, the Hydroxyproline content came out at 514 ± 20.8 µg/g in test [4] (5 mg/kg orally twice a day for 4 days), 488 ± 10.9 µg/g in test [4] (15 mg/kg orally twice a day for 4 days) and 426 ± 14.2 µg/g in test [4] (50 mg/kg orally twice a day for 4 days). In addition, the inhibition at 3 µM in the test on TGFβ signal (setting [7]) amounted to 100%. Also, the inhibition at 10 µM in the test with TGFβ signal (setting [8]) worked out at 100%.

The values are drawn from EP1724268A1, “COMPOUND HAVING TGF-BETA INHIBITORY ACTIVITY AND PHARMACEUTICAL COMPOSITION CONTAINING SAME” (KIRIN BEER KABUSHIKI KAISHA, priority 2004, dated 2005).
